Data set [1] in a line: DRUGMATRIX: Sodium/nucleoside co-transporter radioligand binding (ligand: nitrobenzylthioinosine). In kind it is cell membranes, Cavia porcellus, Dunkin-Hartley, Cerebral cortex, Membrane. The conditions noted are these: Not Active = under 50% inhibition at 10 µM.
The target in a further data set is Melanocortin receptor 5 (Homo sapiens, UniProt P33032). In kind it is cell membranes, HEK293, Membrane. As to conditions: for Ki: read-out: Ki. On all read-outs here: in other assays of this panel Not Active means under 50% inhibition at 10 µM.
Data set [2] can be described thus: DRUGMATRIX: ATPase, Na+/K+ enzyme inhibition (substrate: ATP). In kind it is tissue-based, Sus scrofa, Heart. As to conditions: Not Active = under 50% inhibition at 10 µM.
The next data set deals with T1, D(4) dopamine receptor (Homo sapiens, UniProt P21917).
T1 sequence (P21917 whole entry): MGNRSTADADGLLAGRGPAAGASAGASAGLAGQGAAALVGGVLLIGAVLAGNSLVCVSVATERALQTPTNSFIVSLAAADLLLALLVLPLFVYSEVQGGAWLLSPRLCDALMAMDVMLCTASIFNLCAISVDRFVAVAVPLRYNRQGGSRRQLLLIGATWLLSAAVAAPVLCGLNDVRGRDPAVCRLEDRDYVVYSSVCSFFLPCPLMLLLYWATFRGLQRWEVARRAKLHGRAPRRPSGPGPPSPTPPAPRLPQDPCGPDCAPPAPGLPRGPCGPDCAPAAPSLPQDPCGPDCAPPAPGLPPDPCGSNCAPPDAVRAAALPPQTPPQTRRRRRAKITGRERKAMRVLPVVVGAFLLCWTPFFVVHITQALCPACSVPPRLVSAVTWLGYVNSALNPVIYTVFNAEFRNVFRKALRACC
As to the kind of experiment: DRUGMATRIX: Dopamine D4.2 radioligand binding (ligand: [3H] Spiperone). It counts as cell membranes, CHO-K1, Membrane. The conditions noted are these: Not Active = under 50% inhibition at 10 µM; for Ki: read-out: Ki.

Data set [3] has as its target T2, Alpha-1B adrenergic receptor (Rattus norvegicus, UniProt P15823).
T2 sequence (P15823 whole entry): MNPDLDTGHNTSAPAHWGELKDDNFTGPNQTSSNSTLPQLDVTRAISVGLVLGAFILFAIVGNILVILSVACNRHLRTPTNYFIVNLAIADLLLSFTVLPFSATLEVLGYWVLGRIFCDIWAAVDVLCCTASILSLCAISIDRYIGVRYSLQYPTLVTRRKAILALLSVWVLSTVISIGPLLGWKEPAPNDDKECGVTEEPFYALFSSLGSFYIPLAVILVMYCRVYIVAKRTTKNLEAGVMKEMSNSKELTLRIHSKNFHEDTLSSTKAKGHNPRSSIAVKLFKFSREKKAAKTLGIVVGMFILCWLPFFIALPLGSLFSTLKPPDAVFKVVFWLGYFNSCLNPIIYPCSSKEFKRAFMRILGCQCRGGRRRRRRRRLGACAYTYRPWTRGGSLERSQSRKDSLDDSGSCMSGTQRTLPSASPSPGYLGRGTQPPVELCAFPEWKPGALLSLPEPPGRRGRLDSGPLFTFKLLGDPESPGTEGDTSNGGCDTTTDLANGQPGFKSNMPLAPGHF
Put plainly: DRUGMATRIX: Alpha-1B adrenergic receptor radioligand binding (ligand: prazosin). In kind it is cell membranes, Wistar, Liver, Membrane. As to conditions: Not Active = under 50% inhibition at 10 µM.

Data set [4] has as its target Vascular endothelial growth factor receptor 1 (Homo sapiens, UniProt P17948). In kind it is cell-based. The conditions noted are these: huvec. Further: in other assays of this panel Not Active means under 50% inhibition at 10 µM.
In the next data set the target is Cytochrome P450 2C9 (Homo sapiens, UniProt P11712). The conditions noted are these: bti-tn-5b1-4. Further: in other assays of this panel Not Active means under 50% inhibition at 10 µM.

The structures appear in SMILES notation.

Cytochrome P450 2C9, sequence (P11712 whole entry): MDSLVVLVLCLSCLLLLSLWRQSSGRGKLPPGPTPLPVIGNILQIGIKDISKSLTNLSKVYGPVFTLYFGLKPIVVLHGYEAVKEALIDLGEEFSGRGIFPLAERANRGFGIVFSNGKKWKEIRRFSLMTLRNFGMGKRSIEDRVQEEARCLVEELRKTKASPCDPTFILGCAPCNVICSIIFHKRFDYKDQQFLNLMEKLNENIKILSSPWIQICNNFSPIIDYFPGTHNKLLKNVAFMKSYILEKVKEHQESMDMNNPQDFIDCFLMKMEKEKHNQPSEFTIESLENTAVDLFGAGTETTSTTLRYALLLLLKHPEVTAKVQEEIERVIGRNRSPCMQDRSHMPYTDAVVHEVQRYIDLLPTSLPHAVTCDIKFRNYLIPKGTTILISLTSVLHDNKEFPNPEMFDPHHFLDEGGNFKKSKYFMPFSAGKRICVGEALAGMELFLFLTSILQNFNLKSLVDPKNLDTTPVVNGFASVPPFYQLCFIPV
Melanocortin receptor 5, sequence (P33032 whole entry): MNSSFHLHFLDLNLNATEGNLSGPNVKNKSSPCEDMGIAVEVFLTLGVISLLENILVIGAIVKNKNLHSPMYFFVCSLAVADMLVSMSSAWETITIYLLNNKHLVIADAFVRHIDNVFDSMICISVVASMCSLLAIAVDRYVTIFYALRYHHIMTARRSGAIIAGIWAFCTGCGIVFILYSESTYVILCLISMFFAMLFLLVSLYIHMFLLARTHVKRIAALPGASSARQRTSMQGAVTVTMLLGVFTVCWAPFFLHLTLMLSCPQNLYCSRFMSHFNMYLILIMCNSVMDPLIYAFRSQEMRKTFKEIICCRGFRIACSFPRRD
Vascular endothelial growth factor receptor 1, sequence (P17948 whole entry): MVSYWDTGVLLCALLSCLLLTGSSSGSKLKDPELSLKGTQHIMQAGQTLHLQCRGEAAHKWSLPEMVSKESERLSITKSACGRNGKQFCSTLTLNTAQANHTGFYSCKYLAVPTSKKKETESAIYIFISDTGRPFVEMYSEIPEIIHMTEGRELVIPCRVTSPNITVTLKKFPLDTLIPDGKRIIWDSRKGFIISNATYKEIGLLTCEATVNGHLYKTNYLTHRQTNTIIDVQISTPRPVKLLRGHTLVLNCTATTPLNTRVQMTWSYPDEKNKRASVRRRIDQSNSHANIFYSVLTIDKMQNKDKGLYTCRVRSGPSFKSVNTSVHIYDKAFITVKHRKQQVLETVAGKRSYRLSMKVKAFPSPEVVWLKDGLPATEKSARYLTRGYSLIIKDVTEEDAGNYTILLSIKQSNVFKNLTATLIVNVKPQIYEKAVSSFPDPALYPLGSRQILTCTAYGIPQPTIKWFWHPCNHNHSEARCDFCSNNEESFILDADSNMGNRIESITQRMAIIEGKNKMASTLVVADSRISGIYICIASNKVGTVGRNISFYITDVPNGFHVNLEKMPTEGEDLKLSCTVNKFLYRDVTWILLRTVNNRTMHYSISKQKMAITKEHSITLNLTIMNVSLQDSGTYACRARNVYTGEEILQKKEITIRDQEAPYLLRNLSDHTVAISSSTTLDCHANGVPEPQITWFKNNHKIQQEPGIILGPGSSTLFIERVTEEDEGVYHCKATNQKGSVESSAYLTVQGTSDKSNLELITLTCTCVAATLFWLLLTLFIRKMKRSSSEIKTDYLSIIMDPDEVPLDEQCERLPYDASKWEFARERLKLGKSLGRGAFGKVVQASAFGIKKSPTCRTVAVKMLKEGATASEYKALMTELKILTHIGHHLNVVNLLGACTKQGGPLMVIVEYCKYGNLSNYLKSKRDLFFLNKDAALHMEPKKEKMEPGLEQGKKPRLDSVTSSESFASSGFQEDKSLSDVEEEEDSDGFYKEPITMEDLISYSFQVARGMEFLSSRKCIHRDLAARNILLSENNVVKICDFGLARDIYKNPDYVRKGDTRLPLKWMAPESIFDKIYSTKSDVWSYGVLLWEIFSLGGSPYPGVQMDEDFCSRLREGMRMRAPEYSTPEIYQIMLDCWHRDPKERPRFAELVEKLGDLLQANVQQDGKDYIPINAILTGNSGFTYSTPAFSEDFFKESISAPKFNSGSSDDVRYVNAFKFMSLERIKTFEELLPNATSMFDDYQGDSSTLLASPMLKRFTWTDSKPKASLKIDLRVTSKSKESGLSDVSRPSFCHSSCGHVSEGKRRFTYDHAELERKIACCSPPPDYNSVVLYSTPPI

What is called IC50 is the concentration at which inhibition is half-maximal. In general, Ki refers to a dissociation constant, usually derived from enzyme kinetics or from competition with a known ligand. With `Cc1c(C)c2c(c(C)c1O)CCC(C)(COc1ccc(CC3SC(=O)NC3=O)cc1)O2` (configuration not stated) [TROGLITAZONE], the IC50 result (in data set [1]; on Melanocortin receptor 5 (hek293); in data set [2]; at D(4) dopamine receptor (cho-k1); in data set [3]; in data set [4]) was “Not Active” throughout. Moreover, the Ki entry in data set [1] and in data set [2] was “Not Active” throughout.
On to `c1ccc([C@H]2CN3CCSC3=N2)cc1` [LEVAMISOLE], for which the IC50 entry (in data set [1]; against Melanocortin receptor 5 (hek293); in data set [2]; at D(4) dopamine receptor (cho-k1); in data set [3]; against Cytochrome P450 2C9) was “Not Active” throughout. In addition, the IC50 entry in data set [4] was “Not Active”. Moreover, the Ki result (in data set [1]; in data set [2]; on Cytochrome P450 2C9) was “Not Active” throughout.
On to `CC[C@]1(O)C[C@H]2CN(CCc3c([nH]c4ccccc34)[C@@](C(=O)OC)(c3cc4c(cc3OC)N(C=O)[C@H]3[C@@](O)(C(=O)OC)[C@H](OC(C)=O)[C@]5(CC)C=CCN6CC[C@]43[C@@H]65)C2)C1` [VINCRISTINE], for which the IC50 entry (in data set [1]; at Melanocortin receptor 5 (hek293); in data set [2]; on D(4) dopamine receptor (cho-k1); in data set [3]; against Cytochrome P450 2C9) was “Not Active” throughout. In addition, in data set [4], the IC50 result is on record as “Not Active”. The Ki result (in data set [1]; in data set [2]; on Cytochrome P450 2C9) was “Not Active” each time.
As for `O=c1ncn2nc(Sc3ccc(F)cc3F)ccc2c1-c1c(Cl)cccc1Cl` [NEFLAMAPIMOD], the IC50 entry (in data set [1]; on Melanocortin receptor 5 (hek293); in data set [2]; at D(4) dopamine receptor (cho-k1); in data set [3]; against Cytochrome P450 2C9) was “Not Active” throughout. In addition, the IC50 entry in data set [4] is listed as “Not Active”. Further, the Ki entry (in data set [1]; in data set [2]; on Cytochrome P450 2C9) was “Not Active” each time.
For the compound `NS(=O)(=O)c1cc2c(cc1Cl)NC(C(Cl)Cl)NS2(=O)=O` (configuration not stated) [TRICHLORMETHIAZIDE], the IC50 result (in data set [1]; on Melanocortin receptor 5 (hek293); in data set [2]; at D(4) dopamine receptor (cho-k1); in data set [3]; at Cytochrome P450 2C9) was “Not Active” throughout. Further, the IC50 result in data set [4] is on record as “Not Active”. For the same compound, the Ki entry (in data set [1]; in data set [2]; at Cytochrome P450 2C9) was “Not Active” in each case.
`CCCOc1ccccc1-c1nc2nn[nH]c2c(=O)[nH]1` [ZAPRINAST]: the IC50 entry (in data set [1]; against Melanocortin receptor 5 (hek293); in data set [2]; on D(4) dopamine receptor (cho-k1); in data set [3]; against Cytochrome P450 2C9) was “Not Active” in each case. In addition, in data set [4], the IC50 entry was “Not Active”. Moreover, the Ki entry (in data set [1]; in data set [2]; at Cytochrome P450 2C9) was “Not Active” throughout.
On to `N#CC(C#N)=Cc1ccc(O)c(O)c1` [TYRPHOSTIN 23], for which the IC50 result (in data set [1]; against Melanocortin receptor 5 (hek293); in data set [2]; on D(4) dopamine receptor (cho-k1); in data set [3]; against Cytochrome P450 2C9) was “Not Active” throughout. For the same compound, in data set [4], the half-inhibitory concentration (IC50) result is reported as “Not Active”. Further, the Ki entry (in data set [1]; in data set [2]; at Cytochrome P450 2C9) was “Not Active” each time.
In the case of `C=CCC1(C(C)CCC)C(=O)NC(=O)NC1=O` (configuration not stated) [SECOBARBITAL], the IC50 entry (in data set [1]; against Melanocortin receptor 5 (hek293); in data set [2]; at D(4) dopamine receptor (cho-k1); in data set [3]; against Cytochrome P450 2C9) was “Not Active” throughout. Besides, in data set [4], the IC50 entry was “Not Active”. Further, the inhibition constant (Ki) result (in data set [1]; in data set [2]; on Cytochrome P450 2C9) was “Not Active” in each case.
Regarding `OCCN(CCO)c1nc(N2CCCCC2)c2nc(N(CCO)CCO)nc(N3CCCCC3)c2n1` [DIPYRIDAMOLE], the IC50 in data set [1] (read-out: IC50) was 0.083 µM; against Melanocortin receptor 5 (hek293), “Not Active”; in data set [2], “Not Active”; at D(4) dopamine receptor (cho-k1), “Not Active”; in data set [3] it was “Not Active”; in data set [4], “Not Active”. Also, the Ki in data set [1] (read-out: Ki) is 0.029 µM; in data set [2], “Not Active”.
Take `Nc1c2c(nc3ccccc13)CCCC2` [TACRINE]: the IC50 entry (in data set [1]; at Melanocortin receptor 5 (hek293); in data set [2]; at D(4) dopamine receptor (cho-k1); in data set [3]; at Cytochrome P450 2C9) was “Not Active” in each case. Further, the IC50 entry in data set [4] is “Not Active”. Moreover, the Ki entry (in data set [1]; in data set [2]; at Cytochrome P450 2C9) was “Not Active” in each case.
Turning to `NC[C@H]1CC[C@H](C(=O)O)CC1` [TRANEXAMIC ACID], the IC50 entry (in data set [1]; against Melanocortin receptor 5 (hek293); in data set [2]; at D(4) dopamine receptor (cho-k1); in data set [3]; in data set [4]) was “Not Active” in each case. The Ki entry in data set [1] and in data set [2] was “Not Active” throughout.
For `CC/C(=C(\c1ccccc1)c1ccc(OCCN(C)C)cc1)c1ccccc1` [TAMOXIFEN], the IC50 at Melanocortin receptor 5 (read-out: IC50) was 26.5 µM; on D(4) dopamine receptor (read-out: IC50) it was 11.2 µM; in data set [4], “Not Active”. The Ki came to 24.9 µM on Melanocortin receptor 5 and 3.91 µM on D(4) dopamine receptor.
`CO[C@H]1/C=C/O[C@@]2(C)Oc3c(C)c(O)c4c(O)c(c(/C=N/N5CCN(C)CC5)c(O)c4c3C2=O)NC(=O)/C(C)=C\C=C\[C@H](C)[C@H](O)[C@@H](C)[C@@H](O)[C@@H](C)[C@H](OC(C)=O)[C@@H]1C` [RIFAMPIN]: the IC50 result (in data set [1]; at Melanocortin receptor 5 (hek293); in data set [2]; on D(4) dopamine receptor (cho-k1); in data set [3]; in data set [4]) was “Not Active” throughout. Also, the Ki result in data set [1] and in data set [2] was “Not Active” in each case.
On to `Nc1nc2ccc(OC(F)(F)F)cc2s1` [RILUZOLE], for which the IC50 entry (in data set [1]; at Melanocortin receptor 5 (hek293); in data set [2]; on D(4) dopamine receptor (cho-k1); in data set [3]; in data set [4]) was “Not Active” throughout. In addition, the Ki entry in data set [1] and in data set [2] was “Not Active” in each case.
Regarding `CN1CCN(CCCN2c3ccccc3Sc3ccc(Cl)cc32)CC1` [PROCHLORPERAZINE], the half-inhibitory concentration (IC50) result is “Not Active” on Melanocortin receptor 5 (hek293), 2.31 µM on D(4) dopamine receptor (read-out: IC50), “Not Active” at Cytochrome P450 2C9 and “Not Active” in data set [4]. Moreover, the Ki was 0.81 µM at D(4) dopamine receptor and “Not Active” at Cytochrome P450 2C9.
In the case of `CCOC(=O)N1CCC(=C2c3ccc(Cl)cc3CCc3cccnc32)CC1` [LORATADINE], the IC50 result (in data set [1]; on Melanocortin receptor 5 (hek293); in data set [2]; at D(4) dopamine receptor (cho-k1); in data set [3]; in data set [4]) was “Not Active” throughout. Further, the Ki result in data set [1] and in data set [2] was “Not Active” each time.
For `CC(C)N1CCN(c2ccc(OCC3COC(Cn4cncn4)(c4ccc(Cl)cc4Cl)O3)cc2)CC1` (configuration not stated) [TERCONAZOLE], the IC50 in data set [1] (read-out: IC50) was 12.4 µM; against Melanocortin receptor 5 (hek293), “Not Active”; in data set [2] it was “Not Active”; on D(4) dopamine receptor (cho-k1), “Not Active”; at Cytochrome P450 2C9 it was “Not Active”; in data set [4] it was “Not Active”. Also, the figures for the Ki (in data set [1] (read-out: Ki); in data set [2]; on Cytochrome P450 2C9) were 4.24 µM, “Not Active” and “Not Active”, respectively.
`Cc1nc2n(c(=O)c1CCN1CCC(c3noc4cc(F)ccc34)CC1)CCCC2` [RISPERIDONE]: the IC50 entry (against Melanocortin receptor 5 (hek293); at D(4) dopamine receptor (cho-k1); at Cytochrome P450 2C9; in data set [4]) was “Not Active” throughout. For the same compound, at Cytochrome P450 2C9, the Ki entry is “Not Active”.
As to `CCCCc1oc2ccccc2c1C(=O)c1cc(I)c(OCCN(CC)CC)c(I)c1` [AMIODARONE], the half-maximal inhibitory concentration (IC50) on Melanocortin receptor 5 (read-out: IC50) was 9.5 µM; on D(4) dopamine receptor (read-out: IC50), 17.7 µM; in data set [4], “Not Active”. Besides, the Ki was 8.91 µM on Melanocortin receptor 5 and 6.21 µM at D(4) dopamine receptor.
For `N[C@@H](Cc1cc(I)c(Oc2ccc(O)c(I)c2)c(I)c1)C(=O)O` [LIOTHYRONINE], the IC50 entry (against Melanocortin receptor 5 (hek293); at D(4) dopamine receptor (cho-k1); in data set [3]; in data set [4]) was “Not Active” in each case.

The values above are taken from ChEMBL document CHEMBL1909046, “DrugMatrix in vitro pharmacology data”.
